Legend:
Assay in all cases: CEREP radioligand binding
5-HT transporter (h) = 5-HT transporter (h) (Homo sapiens, UniProt P31645); conditions: radioligand [^3H]-imipramine
Excerpt: (§1) Supplement Table1.docx, table 3: Supplementary Table S3. RG7774 binding to non-CB1R/CB2R receptors, ion channels, transporters, and enzymes (CEREP, Celle l’Evescault, France; http://www.cerep.fr). | column: % inhibition of control SB (n = 2)

5-HT1B (h) = 5-HT1B (h) (Homo sapiens, UniProt P28222); conditions: radioligand [^125I]-CYP (+ 30 μM isoproterenol)
Excerpt: as §1

5-HT2C (h) = 5-HT2C (h) (Homo sapiens, UniProt P28335); conditions: radioligand [^3H]-mesulergine
Excerpt: as §1

5-HT5A (h) = 5-HT5A (h) (Homo sapiens, UniProt P47898); conditions: radioligand [^3H]-LSD
Excerpt: as §1

5-HT7 (h) = 5-HT7 (h) (Homo sapiens, UniProt P34969); conditions: radioligand [^3H]-LSD
Excerpt: as §1

A1 (h) = A1 (h) (Homo sapiens, UniProt P30542); conditions: radioligand [^3H]-DPCPX
A1 (h), sequence (P30542 whole entry): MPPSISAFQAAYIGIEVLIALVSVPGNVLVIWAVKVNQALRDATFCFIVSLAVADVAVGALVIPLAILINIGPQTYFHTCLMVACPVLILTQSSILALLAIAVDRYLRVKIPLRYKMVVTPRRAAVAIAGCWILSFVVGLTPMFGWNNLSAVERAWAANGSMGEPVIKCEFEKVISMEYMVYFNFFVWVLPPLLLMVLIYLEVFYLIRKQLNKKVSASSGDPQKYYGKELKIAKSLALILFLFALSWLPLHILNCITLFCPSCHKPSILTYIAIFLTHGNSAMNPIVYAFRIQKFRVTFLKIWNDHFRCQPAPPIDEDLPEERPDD
Excerpt: as §1

A2A (h) = A2A (h) (Homo sapiens, UniProt P29274); conditions: radioligand [^3H]-CGS 21680
Excerpt: as §1

A3 (h) = A3 (h) (Homo sapiens, UniProt P0DMS8); conditions: radioligand [^125I]-AB-MECA
A3 (h), sequence (P0DMS8 whole entry): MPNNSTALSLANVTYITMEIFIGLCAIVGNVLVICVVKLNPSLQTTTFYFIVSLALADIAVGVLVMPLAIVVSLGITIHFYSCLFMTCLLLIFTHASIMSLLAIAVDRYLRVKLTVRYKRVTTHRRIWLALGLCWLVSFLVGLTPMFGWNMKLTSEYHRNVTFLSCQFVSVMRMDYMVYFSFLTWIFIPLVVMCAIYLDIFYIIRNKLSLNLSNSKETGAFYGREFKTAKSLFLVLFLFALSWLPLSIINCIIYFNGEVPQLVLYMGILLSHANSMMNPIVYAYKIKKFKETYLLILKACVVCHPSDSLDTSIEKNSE
Excerpt: as §1

AT2 (h) = AT2 (h) (Homo sapiens, UniProt P50052); conditions: radioligand [^125I]-CGP 42112A
Excerpt: as §1

BB (non-selective) = conditions: radioligand [^125I]-[Tyr^4]bombesin
Excerpt: as §1

Beta 2 (h) = Beta 2 (h) (Homo sapiens, UniProt P07550); conditions: radioligand [^3H](-)CGP 12177
Excerpt: as §1

CCK1 (CCKA) (h) = CCK1 (CCKA) (h) (Homo sapiens, UniProt P32238); conditions: radioligand [^125I]-CCK-8s
Excerpt: as §1

[1] = tested on: Ca2+ channel (L, verapamil site) (phenylalkylamine); conditions: radioligand [^3H]-D888
Excerpt: as §1

D4.4 (h) = D4.4 (h) (Homo sapiens, UniProt P21917); conditions: radioligand [^3H]-methyl-spiperone
Excerpt: as §1

D5 = D5 (Homo sapiens, UniProt P21918); conditions: radioligand [^3H]-SCH 23390
Excerpt: as §1

Dopamine transporter (h) = Dopamine transporter (h) (Homo sapiens, UniProt Q01959); conditions: radioligand [^3H]-BTCP
Dopamine transporter (h), sequence (Q01959 whole entry): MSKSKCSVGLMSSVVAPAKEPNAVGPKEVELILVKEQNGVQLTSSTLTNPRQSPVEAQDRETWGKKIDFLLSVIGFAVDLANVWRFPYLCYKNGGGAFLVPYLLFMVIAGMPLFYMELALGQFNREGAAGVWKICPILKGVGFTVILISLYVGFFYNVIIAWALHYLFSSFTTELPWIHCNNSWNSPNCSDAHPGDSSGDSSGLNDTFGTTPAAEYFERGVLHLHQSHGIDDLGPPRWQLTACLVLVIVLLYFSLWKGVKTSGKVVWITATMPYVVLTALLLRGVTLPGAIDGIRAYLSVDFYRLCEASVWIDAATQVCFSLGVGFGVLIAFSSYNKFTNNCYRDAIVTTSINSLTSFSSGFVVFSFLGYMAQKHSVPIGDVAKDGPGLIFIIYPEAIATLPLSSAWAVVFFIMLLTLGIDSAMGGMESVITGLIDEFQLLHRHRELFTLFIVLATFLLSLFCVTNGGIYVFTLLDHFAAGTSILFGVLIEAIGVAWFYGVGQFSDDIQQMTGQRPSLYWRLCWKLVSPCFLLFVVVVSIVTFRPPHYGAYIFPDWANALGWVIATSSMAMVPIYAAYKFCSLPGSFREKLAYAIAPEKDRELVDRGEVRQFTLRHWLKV
Excerpt: as §1

EP2 (h) = EP2 (h) (Homo sapiens, UniProt P43116); conditions: radioligand [^3H]-PGE2
Excerpt: as §1

EP4 (h) = EP4 (h) (Homo sapiens, UniProt P35408); conditions: radioligand [^3H]-PGE2
Excerpt: as §1

ETA (h) = ETA (h) (Homo sapiens, UniProt P25101); conditions: radioligand [^125I]-endothelin-1
ETA (h), sequence (P25101 21-427): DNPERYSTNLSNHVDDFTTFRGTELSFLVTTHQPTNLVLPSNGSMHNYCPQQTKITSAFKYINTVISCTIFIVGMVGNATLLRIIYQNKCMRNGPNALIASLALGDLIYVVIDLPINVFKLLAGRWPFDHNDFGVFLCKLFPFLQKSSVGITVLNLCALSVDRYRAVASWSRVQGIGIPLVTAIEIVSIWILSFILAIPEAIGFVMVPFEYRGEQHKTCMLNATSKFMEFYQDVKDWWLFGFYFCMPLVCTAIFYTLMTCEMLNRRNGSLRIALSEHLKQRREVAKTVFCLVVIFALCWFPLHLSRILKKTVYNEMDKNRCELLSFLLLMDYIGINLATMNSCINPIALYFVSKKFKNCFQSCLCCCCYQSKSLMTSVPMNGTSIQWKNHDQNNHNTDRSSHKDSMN
Excerpt: as §1

GR (h) = GR (h) (Homo sapiens, UniProt P04150); conditions: radioligand [^3H]-dexamethasone
Excerpt: as §1

IP (PGI2) (h) = IP (PGI2) (h) (Homo sapiens, UniProt P43119); conditions: radioligand [^3H]-iloprost
Excerpt: as §1

KV channel = conditions: radioligand [^125I]-α-dendrotoxin
Excerpt: as §1

M3 (h) = M3 (h) (Homo sapiens, UniProt P20309); conditions: radioligand [^3H]-4-DAMP
M3 (h), sequence (P20309 whole entry): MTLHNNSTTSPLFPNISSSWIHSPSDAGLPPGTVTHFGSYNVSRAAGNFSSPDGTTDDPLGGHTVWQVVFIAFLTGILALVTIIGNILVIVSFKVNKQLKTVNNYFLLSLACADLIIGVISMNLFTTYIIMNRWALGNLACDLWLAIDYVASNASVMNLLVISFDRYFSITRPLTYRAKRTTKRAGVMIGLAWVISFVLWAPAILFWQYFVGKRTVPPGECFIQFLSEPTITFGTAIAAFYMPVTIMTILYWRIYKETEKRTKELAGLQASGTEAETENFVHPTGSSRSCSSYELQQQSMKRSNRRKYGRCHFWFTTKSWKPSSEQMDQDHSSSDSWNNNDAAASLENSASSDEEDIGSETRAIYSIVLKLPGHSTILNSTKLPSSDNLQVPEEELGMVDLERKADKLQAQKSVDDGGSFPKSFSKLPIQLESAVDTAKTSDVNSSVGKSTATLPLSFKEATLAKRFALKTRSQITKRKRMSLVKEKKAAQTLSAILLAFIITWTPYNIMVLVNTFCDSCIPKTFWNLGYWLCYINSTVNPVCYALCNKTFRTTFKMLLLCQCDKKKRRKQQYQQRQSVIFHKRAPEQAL
Excerpt: as §1

M4 (h) = M4 (h) (Homo sapiens, UniProt P08173); conditions: radioligand [^3H]-4-DAMP
Excerpt: as §1

NK1 (h) = NK1 (h) (Homo sapiens, UniProt P25103); conditions: radioligand [^125I]-BH-SP
NK1 (h), sequence (P25103 whole entry): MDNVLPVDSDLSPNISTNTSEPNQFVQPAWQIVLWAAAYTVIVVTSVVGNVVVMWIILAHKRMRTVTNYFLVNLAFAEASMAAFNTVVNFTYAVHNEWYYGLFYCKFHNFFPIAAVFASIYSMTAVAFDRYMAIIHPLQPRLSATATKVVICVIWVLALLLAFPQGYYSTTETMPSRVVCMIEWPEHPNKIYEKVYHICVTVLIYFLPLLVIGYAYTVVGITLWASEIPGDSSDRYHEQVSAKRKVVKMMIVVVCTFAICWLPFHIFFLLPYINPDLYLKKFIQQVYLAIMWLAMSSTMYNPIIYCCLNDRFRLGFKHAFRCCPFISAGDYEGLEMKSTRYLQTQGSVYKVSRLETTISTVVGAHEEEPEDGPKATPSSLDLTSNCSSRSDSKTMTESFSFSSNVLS
Excerpt: as §1

NK2 (h) = NK2 (h) (Homo sapiens, UniProt P21452); conditions: radioligand [^125I]-NKA
NK2 (h), sequence (P21452 whole entry): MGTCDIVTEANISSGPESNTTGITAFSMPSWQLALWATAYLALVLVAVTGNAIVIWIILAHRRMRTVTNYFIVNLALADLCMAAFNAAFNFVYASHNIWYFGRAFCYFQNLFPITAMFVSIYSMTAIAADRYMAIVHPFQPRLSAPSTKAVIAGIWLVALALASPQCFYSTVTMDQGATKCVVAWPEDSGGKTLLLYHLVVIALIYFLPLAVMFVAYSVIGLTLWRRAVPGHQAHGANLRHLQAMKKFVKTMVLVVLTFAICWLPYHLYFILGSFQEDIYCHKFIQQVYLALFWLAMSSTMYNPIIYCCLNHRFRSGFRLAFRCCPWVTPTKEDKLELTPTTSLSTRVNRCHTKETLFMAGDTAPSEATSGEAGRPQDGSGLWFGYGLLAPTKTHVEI
Excerpt: as §1

NK3 (h) = NK3 (h) (Homo sapiens, UniProt P29371); conditions: radioligand [^3H]-SR 142801
NK3 (h), sequence (P29371 whole entry): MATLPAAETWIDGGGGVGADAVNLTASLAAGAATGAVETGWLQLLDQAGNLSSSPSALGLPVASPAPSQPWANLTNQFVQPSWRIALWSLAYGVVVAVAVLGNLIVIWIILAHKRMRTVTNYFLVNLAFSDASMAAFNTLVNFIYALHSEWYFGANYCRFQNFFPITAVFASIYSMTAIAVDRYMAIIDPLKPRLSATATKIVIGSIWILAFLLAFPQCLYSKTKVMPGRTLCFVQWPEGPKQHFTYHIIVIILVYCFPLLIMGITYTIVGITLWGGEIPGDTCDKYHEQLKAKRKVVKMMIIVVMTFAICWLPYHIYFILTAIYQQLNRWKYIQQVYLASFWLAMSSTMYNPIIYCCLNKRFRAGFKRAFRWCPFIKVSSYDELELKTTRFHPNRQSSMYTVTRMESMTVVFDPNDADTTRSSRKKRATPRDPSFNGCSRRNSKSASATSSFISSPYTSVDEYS
Excerpt: as §1

NOP (ORL1) (h) = NOP (ORL1) (h) (Homo sapiens, UniProt P41146); conditions: radioligand [^3H]-nociceptin
NOP (ORL1) (h), sequence (P41146 whole entry): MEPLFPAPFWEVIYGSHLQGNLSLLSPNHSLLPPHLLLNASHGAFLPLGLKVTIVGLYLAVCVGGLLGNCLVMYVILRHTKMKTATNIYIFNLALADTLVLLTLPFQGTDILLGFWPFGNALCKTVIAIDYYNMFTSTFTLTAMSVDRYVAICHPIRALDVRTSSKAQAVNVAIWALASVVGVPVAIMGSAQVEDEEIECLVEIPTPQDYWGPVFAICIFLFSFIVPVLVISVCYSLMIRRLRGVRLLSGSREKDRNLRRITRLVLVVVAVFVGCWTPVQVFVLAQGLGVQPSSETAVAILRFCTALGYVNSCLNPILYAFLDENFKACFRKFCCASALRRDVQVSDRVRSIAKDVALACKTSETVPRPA
Excerpt: as §1

NTS1 (NT1) (h) = NTS1 (NT1) (h) (Homo sapiens, UniProt P30989); conditions: radioligand [^125I]-Tyr3-neurotensin
NTS1 (NT1) (h), sequence (P30989 whole entry): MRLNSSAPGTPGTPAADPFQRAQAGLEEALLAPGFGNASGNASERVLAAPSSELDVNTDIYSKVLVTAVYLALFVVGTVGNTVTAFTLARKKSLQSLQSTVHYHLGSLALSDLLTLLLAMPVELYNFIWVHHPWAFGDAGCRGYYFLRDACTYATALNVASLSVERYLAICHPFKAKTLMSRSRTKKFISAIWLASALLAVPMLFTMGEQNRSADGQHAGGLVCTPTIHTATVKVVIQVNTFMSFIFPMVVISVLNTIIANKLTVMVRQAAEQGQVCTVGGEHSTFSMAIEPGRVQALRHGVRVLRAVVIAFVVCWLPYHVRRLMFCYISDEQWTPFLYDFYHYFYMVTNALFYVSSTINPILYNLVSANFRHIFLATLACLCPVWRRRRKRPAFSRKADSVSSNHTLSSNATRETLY
Excerpt: as §1

[2] = target: Norepinephrine transporter (h) (Homo sapiens, UniProt P23975); conditions: radioligand [^3H]-nisoxetine
Excerpt: as §1

P2X = conditions: radioligand [^3H]-α,β-MeATP
Excerpt: as §1

PCP = conditions: radioligand [^3H]-TCP
Excerpt: as §1

SKCa channel = conditions: radioligand [^125I]-apamin
Excerpt: as §1

TNF-α = conditions: radioligand [^125I]-TNF-α
Excerpt: as §1

VPAC1 (VIP1) (h) = VPAC1 (VIP1) (h) (Homo sapiens, UniProt P32241); conditions: radioligand [^125I]-VIP
Excerpt: as §1

sst (non-selective) = conditions: radioligand [^125I]-Tyr^11-somatostatin-14
Excerpt: as §1

δ(DOP) (h) = δ(DOP) (h) (Homo sapiens, UniProt P41143); conditions: radioligand [^3H]-DADLE
Excerpt: as §1

μ(MOP) (h) = μ(MOP) (h) (Homo sapiens, UniProt P35372); conditions: radioligand [^3H]-DAMGO
Excerpt: as §1

5-HT transporter (h), sequence (P31645 whole entry): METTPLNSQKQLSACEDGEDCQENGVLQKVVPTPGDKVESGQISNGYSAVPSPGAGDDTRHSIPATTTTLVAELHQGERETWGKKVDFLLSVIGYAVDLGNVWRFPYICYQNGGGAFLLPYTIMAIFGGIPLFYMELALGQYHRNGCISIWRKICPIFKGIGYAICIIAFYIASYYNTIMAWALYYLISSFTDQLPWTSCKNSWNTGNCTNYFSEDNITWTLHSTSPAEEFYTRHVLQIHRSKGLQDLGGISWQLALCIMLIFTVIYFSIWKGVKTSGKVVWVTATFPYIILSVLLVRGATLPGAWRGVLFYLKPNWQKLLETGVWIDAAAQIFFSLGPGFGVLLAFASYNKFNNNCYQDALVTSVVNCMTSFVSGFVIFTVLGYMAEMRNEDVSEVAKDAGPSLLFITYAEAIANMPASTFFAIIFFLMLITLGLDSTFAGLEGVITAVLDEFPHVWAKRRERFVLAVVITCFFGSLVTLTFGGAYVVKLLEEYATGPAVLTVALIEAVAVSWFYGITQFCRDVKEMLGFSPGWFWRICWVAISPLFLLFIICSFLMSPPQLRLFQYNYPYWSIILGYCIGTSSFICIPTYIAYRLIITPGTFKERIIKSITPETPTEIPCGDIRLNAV

`Cn1nnnc1Cn1nnc2c(N3CC[C@H](O)C3)nc(C(C)(C)C)nc21` [RG7774, (S)-1-(5-tert-butyl-3-[(1-methyl-1H-tetrazol-5-yl)methyl]-3H-[1,2,3]triazolo[4,5-d]pyrimidin-7-yl)pyrrolidin-3-ol] was tested, and the “% inhibition of control SB (n = 2)” value (5-HT transporter (h)) was 22.2%, the “% inhibition of control SB (n = 2)” value (5-HT1B (h)) was “–10.6%” and the “% inhibition of control SB (n = 2)” value (5-HT2C (h)) was 2.7%. The “% inhibition of control SB (n = 2)” value (5-HT5A (h)) was 2.2%, the “% inhibition of control SB (n = 2)” value (5-HT7 (h)) was 3.9% and the “% inhibition of control SB (n = 2)” value (A1 (h)) was 3.6%. For the same compound, the “% inhibition of control SB (n = 2)” value (A2A (h)) was 12.4%, the “% inhibition of control SB (n = 2)” value (A3 (h)) was “–0.6%” and the “% inhibition of control SB (n = 2)” value (AT2 (h)) was 3.1%. The “% inhibition of control SB (n = 2)” value (BB (non-selective)) was “–9.5%”, the “% inhibition of control SB (n = 2)” value (Beta 2 (h)) was “–1.3%” and the “% inhibition of control SB (n = 2)” value (CCK1 (CCKA) (h)) was “–7.4%”. For the same compound, the “% inhibition of control SB (n = 2)” value [1] was 3.0%, the “% inhibition of control SB (n = 2)” value (D4.4 (h)) was 3.7% and the “% inhibition of control SB (n = 2)” value (D5) was “–2.0%”. The “% inhibition of control SB (n = 2)” value (Dopamine transporter (h)) was 4.9%, the “% inhibition of control SB (n = 2)” value (EP2 (h)) was “–13.4%” and the “% inhibition of control SB (n = 2)” value (EP4 (h)) was “–8.7%”. The “% inhibition of control SB (n = 2)” value (ETA (h)) was “–10.4%”, the “% inhibition of control SB (n = 2)” value (GR (h)) was 3.0% and the “% inhibition of control SB (n = 2)” value (IP (PGI2) (h)) was “–3.8%”. For the same compound, the “% inhibition of control SB (n = 2)” value (KV channel) was “–5.7%”, the “% inhibition of control SB (n = 2)” value (M3 (h)) was “–6.7%” and the “% inhibition of control SB (n = 2)” value (M4 (h)) was “–8.9%”. For the same compound, the “% inhibition of control SB (n = 2)” value (NK1 (h)) was “–3.7%”, the “% inhibition of control SB (n = 2)” value (NK2 (h)) was “–5.5%” and the “% inhibition of control SB (n = 2)” value (NK3 (h)) was 8.2%. The “% inhibition of control SB (n = 2)” value (NOP (ORL1) (h)) was 2.7%, the “% inhibition of control SB (n = 2)” value (NTS1 (NT1) (h)) was “–4.7%” and the “% inhibition of control SB (n = 2)” value [2] was 5.4%. For the same compound, the “% inhibition of control SB (n = 2)” value (P2X) was 25.9%, the “% inhibition of control SB (n = 2)” value (PCP) was “–4.4%” and the “% inhibition of control SB (n = 2)” value (SKCa channel) was 8.6%. The “% inhibition of control SB (n = 2)” value (TNF-α) was 4.9%, the “% inhibition of control SB (n = 2)” value (VPAC1 (VIP1) (h)) was 7.8% and the “% inhibition of control SB (n = 2)” value (sst (non-selective)) was “–22.2%”. For the same compound, the “% inhibition of control SB (n = 2)” value (δ(DOP) (h)) was 4.7% and the “% inhibition of control SB (n = 2)” value (μ(MOP) (h)) was “–2.5%”.

From article PMC11272598, “RG7774 (Vicasinabin), an orally bioavailable cannabinoid receptor 2 (CB2R) agonist, decreases retinal vascular permeability, leukocyte adhesion, and ocular inflammation in animal models” (Frontiers in Pharmacology, 2024)
